Measurements taken from PubChem BioAssay (NCI).
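Each compound was tested at five concentrations against cells in 96-well plates for 48 hours. GI50 = concentration required for 50% inhibition of growth. TGI is the concentration that stops growth completely.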

What was measured:
Experiment in all cases: growth of human tumour cells (NCI), 48 h
COLO 205 colon = tested on: COLO 205 colon
HCC-2998 colon = tested on: HCC-2998 colon
HCT-116 colon = tested on: HCT-116 colon
HOP-92 NSCLC = tested on: HOP-92 NSCLC
HT29 colon = tested on: HT29 colon
NCI-H460 lung = tested on: NCI-H460 lung
NCI/ADR-RES ovarian = tested on: NCI/ADR-RES ovarian
OVCAR-3 ovarian = tested on: OVCAR-3 ovarian
OVCAR-5 ovarian = tested on: OVCAR-5 ovarian
SW-620 colon = tested on: SW-620 colon

Structure (SMILES)	GI50 (COLO 205 colon) [µM]	TGI (COLO 205 colon) [µM]	GI50 (HCC-2998 colon) [µM]	TGI (HCC-2998 colon) [µM]	GI50 (HCT-116 colon) [µM]	TGI (HCT-116 colon) [µM]	GI50 (HOP-92 NSCLC) [µM]	TGI (HOP-92 NSCLC) [µM]	GI50 (HT29 colon) [µM]	TGI (HT29 colon) [µM]	GI50 (NCI-H460 lung) [µM]	TGI (NCI-H460 lung) [µM]	GI50 (NCI/ADR-RES ovarian) [µM]	TGI (NCI/ADR-RES ovarian) [µM]	GI50 (OVCAR-3 ovarian) [µM]	TGI (OVCAR-3 ovarian) [µM]	GI50 (OVCAR-5 ovarian) [µM]	TGI (OVCAR-5 ovarian) [µM]	GI50 (SW-620 colon) [µM]	TGI (SW-620 colon) [µM]
CC(C)n1c(=O)n(C)c2cnc3cc(F)c(-c4ccc(OCCCN5CCCCC5)nc4)cc3c21	7.39	23.4	23.3	> 100	10.9	27.4	1.2	9.36	8.5	37.2	11.3	29.4	12.4	81.3	13.7	49.5	15.7	55.7	14.3	42.3
CS(=O)(=O)c1ccc(Oc2cc(F)cc(C#N)c2)c2c1[C@H](O)C(F)(F)C2	> 100	> 100	> 100	> 100	> 100	> 100	> 100	> 100	> 100	> 100	> 100	> 100	> 100	> 100	> 100	> 100	> 100	> 100	> 100	> 100
COc1ccc(CCN2CCC(Nc3nc4ccccc4n3Cc3ccc(F)cc3)CC2)cc1	1.52	2.98	0.46	1.69	1.21	2.44	0.406	2.29	0.591	2.36	2.67	9.54	1.59	3.32	1.66	3.07	1.66	3.7	1.68	5.14
CCC(c1ccc2cc(O)ccc2c1)C(C)(C)C(=O)O (centres undefined)	–	> 100	–	> 100	–	> 100	–	> 100	–	> 100	–	> 100	–	> 100	–	> 100	–	> 100	–	> 100
S=C(c1ccc2c(c1)OCO2)N1CCN(c2cccc(Cl)c2)CC1	0.706	–	1.27	16.4	0.454	14.5	95.4	> 100	0.406	> 100	0.387	> 74.7	0.635	> 100	0.338	1.23	7.69	> 100	0.404	> 100
O=C(NCCNc1nccc(-c2c(-c3ccc(F)cc3)nc3sccn23)n1)c1ccccc1	1.84	14.6	17.4	40.1	4.37	35.8	14.8	68.2	4.31	> 100	3.28	22.3	7.13	76.4	16.2	> 100	18.1	99.3	7.44	85.6
CCOC(=O)c1c(Cl)c2c(n1Cc1cccc(OC)c1)-c1oncc1CC2	1.62	11.3	3.01	19.6	0.904	24.2	9.24	> 100	0.799	15.1	0.659	13.7	0.497	6.91	0.383	2.92	10.1	> 100	0.773	> 100
